# Key:
# Cholinesterase [1] = target: T1, Cholinesterase (Homo sapiens, UniProt P06276); assay: Inhibition of human BChE
# Acetylcholinesterase [2] = target: T2, Acetylcholinesterase (Homo sapiens, UniProt P22303); assay: Inhibition of recombinant human AchE by Ellman's reagent based spectrophotometric analysis
# Cholinesterase [3] = target: T1, Cholinesterase; assay: Inhibition of human BchE by Ellman's reagent based spectrophotometric analysis
# HepG2 = assay: Antiproliferative activity against human HepG2 cells assessed as reduction in cell proliferation incubated for 24 hrs by MTT assay; assay type: functional, cell-based; conditions: HepG2, 24 h
# LN-229 = assay: Anticancer activity against human LN-229 cells assessed as cell growth inhibition by MTS assay; assay type: functional
# NCI-H460 = assay: Anticancer activity against human NCI-H460 cells assessed as cell growth inhibition incubated for 72 hrs by MTT assay; assay type: functional
# MCF7 [4] = assay: Antiproliferative activity against human MCF7 cells assessed as cell growth inhibition incubated for 72 hrs by MTT assay; assay type: functional
# K562 = assay: Anticancer activity against human K562 cells assessed as cell growth inhibition incubated for 72 hrs by CellTiter96 aqueous Non-Radioactive Cell Proliferation Assay; assay type: functional
# HCT-116 = assay: Anticancer activity against human HCT-116 cells assessed as cell growth inhibition incubated for 72 hrs by MTT assay; assay type: functional
# [5] = Anticancer activity against human DND41 cells assessed as cell growth inhibition incubated for 72 hrs by CellTiter96 aqueous Non-Radioactive Cell Proliferation Assay; assay type: functional
# CAPAN-1 = assay: Anticancer activity against human CAPAN-1 cells assessed as cell growth inhibition by MTS assay; assay type: functional
# HL-60 [6] = assay: Anticancer activity against human HL-60 cells assessed as cell growth inhibition incubated for 72 hrs by CellTiter96 aqueous Non-Radioactive Cell Proliferation Assay; assay type: functional
# Z-138 = assay: Anticancer activity against human Z138 cells assessed as cell growth inhibition incubated for 72 hrs by CellTiter96 aqueous Non-Radioactive Cell Proliferation Assay; assay type: functional
# [7] = Inhibition of ConA-induced IL-1beta secretion in female BALB/c mouse splenocyte incubated for 48 hrs by ELISA; assay type: functional, cell-based
# [8] = Inhibition of ConA-induced IL-6 secretion in female BALB/c mouse splenocyte incubated for 48 hrs by ELISA; assay type: functional, cell-based
# [9] = Cytotoxicity against human Huh-7 cells assessed as reduction in cell viability incubated for 2 days by MTT assay; assay type: toxicity, cell-based; conditions: time 2 day
# [10] = Inhibition of ConA-induced TNF-alpha secretion in female BALB/c mouse splenocyte incubated for 48 hrs by ELISA; assay type: functional, cell-based
# SMMC-7721 = assay: Antiproliferative activity against human SMMC-7721 cells assessed as reduction in cell proliferation incubated for 24 hrs by MTT assay; assay type: functional, cell-based; conditions: SMMC-7721, 24 h
# HL-60 [11] = assay: Cytotoxicity against human HL-60 cells assessed as reduction in cell viability incubated for 24 hrs by MTT assay; assay type: functional, cell-based; conditions: HL-60, 24 h
# Jurkat E6.1 = assay: Cytotoxicity against human Jurkat E6.1 cells assessed as reduction in cell viability incubated for 24 hrs by MTT assay; assay type: functional, cell-based; conditions: Jurkat E6.1, 24 h
# [12] = test system: Staphylococcus epidermidis; assay: Antibacterial activity against Staphylococcus epidermidis; assay type: functional
# Escherichia coli [13] = assay: Antibacterial activity against Escherichia coli ATCC25922; assay type: functional
# Pseudomonas aeruginosa [14] = assay: Antibacterial activity against Pseudomonas aeruginosa; assay type: functional
# Klebsiella oxytoca = assay: Antibacterial activity against Klebsiella oxytoca ATCC8724; assay type: functional
# Bacillus subtilis [15] = assay: Antibacterial activity against Bacillus subtilis ATCC19659; assay type: functional
# Enterococcus faecalis = assay: Antibacterial activity against Enterococcus faecalis ATCC13047; assay type: functional
# Proteus vulgaris = assay: Antibacterial activity against Proteus vulgaris ATCC6380; assay type: functional
# Pseudomonas mevalonii = assay: Antibacterial activity against Pseudomonas mevalonii; assay type: functional; conditions: Pseudomonas sp. 'mevalonii'
# Staphylococcus aureus [16] = assay: Antibacterial activity against Staphylococcus aureus; assay type: functional
# [17] = test system: Mycolicibacterium smegmatis; assay: Antibacterial activity against Mycobacterium smegmatis; assay type: functional
# Cholinesterase [18] = target: Cholinesterase (Equus caballus, UniProt P81908); assay: Inhibition of equine serum BChE using […] as substrate preincubated for 10 mins followed by substrate addition and measured after 5 mins by Ellman's reagent based spectrophotometric analysis
# Chain of Cholinesterase (Equus caballus, UniProt P81908) (P81908 whole entry): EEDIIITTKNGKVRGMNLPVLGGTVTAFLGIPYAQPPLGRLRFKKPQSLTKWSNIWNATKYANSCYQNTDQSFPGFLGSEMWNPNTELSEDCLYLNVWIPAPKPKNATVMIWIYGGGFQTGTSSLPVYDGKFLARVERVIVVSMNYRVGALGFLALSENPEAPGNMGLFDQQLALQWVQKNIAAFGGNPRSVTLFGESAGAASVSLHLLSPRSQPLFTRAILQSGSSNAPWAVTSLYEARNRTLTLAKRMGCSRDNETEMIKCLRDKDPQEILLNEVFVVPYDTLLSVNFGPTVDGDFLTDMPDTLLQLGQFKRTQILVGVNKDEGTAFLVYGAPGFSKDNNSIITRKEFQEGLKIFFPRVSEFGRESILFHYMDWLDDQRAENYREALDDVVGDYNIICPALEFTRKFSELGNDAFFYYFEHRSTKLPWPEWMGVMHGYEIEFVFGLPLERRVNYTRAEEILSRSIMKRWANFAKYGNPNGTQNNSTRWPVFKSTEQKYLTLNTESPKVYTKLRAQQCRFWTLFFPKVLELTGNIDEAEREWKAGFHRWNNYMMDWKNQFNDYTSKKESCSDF
# Acetylcholinesterase [19] = target: Acetylcholinesterase (Electrophorus electricus, UniProt O42275); assay: Inhibition of electric eel AChE using […] as substrate preincubated for 10 mins followed by substrate addition and measured after 5 mins by Ellman's reagent based spectrophotometric analysis
# Chain of Acetylcholinesterase (Electrophorus electricus, UniProt O42275) (O42275 whole entry): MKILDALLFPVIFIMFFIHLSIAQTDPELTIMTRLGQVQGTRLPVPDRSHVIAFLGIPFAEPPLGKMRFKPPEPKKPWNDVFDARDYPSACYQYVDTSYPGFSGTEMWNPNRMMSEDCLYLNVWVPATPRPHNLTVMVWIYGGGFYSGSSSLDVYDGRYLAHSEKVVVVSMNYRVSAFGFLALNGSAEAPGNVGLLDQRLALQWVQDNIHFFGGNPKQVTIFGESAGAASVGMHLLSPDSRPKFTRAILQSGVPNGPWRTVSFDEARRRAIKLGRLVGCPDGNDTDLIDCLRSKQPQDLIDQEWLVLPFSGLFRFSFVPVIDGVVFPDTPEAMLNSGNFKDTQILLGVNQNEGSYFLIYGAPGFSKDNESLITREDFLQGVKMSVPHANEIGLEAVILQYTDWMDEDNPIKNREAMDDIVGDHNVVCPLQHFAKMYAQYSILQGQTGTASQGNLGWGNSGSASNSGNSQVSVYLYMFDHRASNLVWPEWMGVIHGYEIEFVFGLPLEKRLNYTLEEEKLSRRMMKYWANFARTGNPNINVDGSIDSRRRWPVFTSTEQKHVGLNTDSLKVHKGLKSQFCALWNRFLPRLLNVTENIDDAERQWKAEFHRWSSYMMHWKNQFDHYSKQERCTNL
# [20] = Cytotoxicity against MDCK cells assessed as cell growth inhibition incubated for 72 hrs by MTT assay; assay type: toxicity, cell-based, Canis lupus familiaris; conditions: dog
# [21] = Antiproliferative activity against human Caco-2 cells assessed as cell growth inhibition incubated for 72 hrs by MTT assay; assay type: toxicity, cell-based
# MCF7 [22] = assay: Antiproliferative activity against human MCF7 cells; assay type: functional, cell-based
# A549 = assay: Antiproliferative activity against human A549 cells; assay type: functional, cell-based
# Pseudomonas aeruginosa [23] = assay: Antibacterial activity against Pseudomonas aeruginosa MTCC 741 by agar streak dilution method; assay type: functional
# Bacillus subtilis [24] = assay: Antibacterial activity against Bacillus subtilis MTCC 619 by agar streak dilution method; assay type: functional
# Staphylococcus aureus [25] = assay: Antibacterial activity against Staphylococcus aureus MTCC 96 by agar streak dilution method; assay type: functional
# Escherichia coli [26] = assay: Antibacterial activity against Escherichia coli MTCC 739 by agar streak dilution method; assay type: functional
# Candida albicans = assay: Antifungal activity against Candida albicans MTCC 183 by agar streak dilution method; assay type: functional
# Aspergillus niger = assay: Antifungal activity Aspergillus niger MTCC 282 by agar streak dilution method; assay type: organism-based
# [27] = test system: Mycobacterium tuberculosis; assay: Antitubercular activity against Mycobacterium tuberculosis H37Rv assessed as inhibition of bacterial growth at 250 microg/ml relative to control; assay type: functional
# Acetylcholinesterase [28] = target: T2, Acetylcholinesterase; assay: Inhibition of human erythrocyte AChE using acetylthiocholine as substrate preincubated for 5 mins followed by substrate addition by Ellman's reagent based spectrophotometric analysis
# T1 sequence (P06276 whole entry): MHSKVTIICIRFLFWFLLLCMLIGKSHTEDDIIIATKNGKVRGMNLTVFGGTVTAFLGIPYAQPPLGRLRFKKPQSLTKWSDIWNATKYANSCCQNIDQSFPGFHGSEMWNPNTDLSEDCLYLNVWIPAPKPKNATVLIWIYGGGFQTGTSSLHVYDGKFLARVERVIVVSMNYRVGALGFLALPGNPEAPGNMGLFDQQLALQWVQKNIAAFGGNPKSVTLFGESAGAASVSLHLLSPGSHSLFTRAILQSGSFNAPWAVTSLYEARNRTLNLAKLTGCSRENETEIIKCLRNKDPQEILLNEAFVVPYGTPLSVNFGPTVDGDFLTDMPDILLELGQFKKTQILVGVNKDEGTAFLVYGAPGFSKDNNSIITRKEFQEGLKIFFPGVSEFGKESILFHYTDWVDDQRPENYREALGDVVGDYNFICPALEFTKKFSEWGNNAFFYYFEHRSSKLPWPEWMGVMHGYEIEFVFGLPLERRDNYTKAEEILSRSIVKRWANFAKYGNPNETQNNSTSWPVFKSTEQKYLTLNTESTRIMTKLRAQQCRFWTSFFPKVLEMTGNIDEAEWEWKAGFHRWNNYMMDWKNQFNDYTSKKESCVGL
# T2 sequence (P22303 whole entry): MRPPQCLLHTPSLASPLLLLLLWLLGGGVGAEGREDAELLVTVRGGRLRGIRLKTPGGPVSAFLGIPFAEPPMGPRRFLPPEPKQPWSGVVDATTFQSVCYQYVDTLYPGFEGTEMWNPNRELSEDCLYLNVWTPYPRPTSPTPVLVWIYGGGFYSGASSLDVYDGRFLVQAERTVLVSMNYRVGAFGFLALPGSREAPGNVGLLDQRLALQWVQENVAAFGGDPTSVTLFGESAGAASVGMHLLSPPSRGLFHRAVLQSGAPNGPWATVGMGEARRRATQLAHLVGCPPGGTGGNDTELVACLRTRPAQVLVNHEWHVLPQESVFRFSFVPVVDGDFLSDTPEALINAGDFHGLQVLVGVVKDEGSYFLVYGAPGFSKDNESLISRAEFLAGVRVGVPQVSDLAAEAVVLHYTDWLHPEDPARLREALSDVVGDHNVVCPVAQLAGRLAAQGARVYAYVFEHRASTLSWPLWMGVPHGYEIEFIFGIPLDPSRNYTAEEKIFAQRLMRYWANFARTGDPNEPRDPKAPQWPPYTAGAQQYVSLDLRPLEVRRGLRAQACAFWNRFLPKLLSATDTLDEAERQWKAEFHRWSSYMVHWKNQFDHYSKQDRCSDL
compound,measurement,setting,value
Cc1ccc(S(=O)(=O)NCCCCNc2c3c(nc4ccccc24)CCCC3)cc1,IC50,Cholinesterase [1],131 nM
Clc1ccc2c(NCCNC34CC5CC(CC(C5)C3)C4)ccnc2c1,Ki,Acetylcholinesterase [2],1600 nM
same,Ki,Cholinesterase [3],920 nM
O=C(N/N=C/c1nc2ccccc2[nH]1)c1ccc(Nc2ccnc3ccccc23)cc1,IC50,HepG2,> 80000 nM
C=C(CC(=O)OC)C(=O)NCCCCNc1ccnc2cc(Cl)ccc12,GI50,LN-229,1100 nM
same,GI50,NCI-H460,2000 nM
same,GI50,MCF7 [4],800 nM
same,GI50,K562,8100 nM
same,GI50,HCT-116,2000 nM
same,GI50,[5],3100 nM
same,GI50,CAPAN-1,1300 nM
same,GI50,HL-60 [6],1900 nM
same,GI50,Z-138,1900 nM
CCN(CCCC(C)Nc1ccnc2cc(Cl)ccc12)CCNC(=O)C(F)(F)C1CCN(CCOCCOC)CC1 (configuration not stated),IC50,[7],1810 nM
same,IC50,[8],2520 nM
same,CC50 at 48 h,[9],5750 nM
same,IC50,[10],24400 nM
COc1ccc(/C=N/NC(=O)c2ccc(Nc3ccnc4ccccc34)cc2)cc1OC,IC50,HepG2,12600 nM
same,IC50,SMMC-7721,9600 nM
COc1ccc(C2CC(c3cccc(Nc4ccnc5cc(Cl)ccc45)c3)=NN2)cc1OC (configuration not stated),IC50,HL-60 [11],940 nM
same,IC50,Jurkat E6.1,3170 nM
CC1(C)CC[C@]2(C(=O)OCCNc3ccnc4ccc(Cl)cc34)CC[C@]3(C)C(=CC[C@@H]4[C@@]5(C)CC[C@H](O)C(C)(C)[C@@H]5CC[C@]43C)[C@@H]2C1,MIC,[12],1250 µg/mL
same,MIC,Escherichia coli [13],2500 µg/mL
same,MIC,Pseudomonas aeruginosa [14],2500 µg/mL
same,MIC,Klebsiella oxytoca,1250 µg/mL
same,MIC,Bacillus subtilis [15],2500 µg/mL
same,MIC,Enterococcus faecalis,1250 µg/mL
same,MIC,Proteus vulgaris,2500 µg/mL
same,MIC,Pseudomonas mevalonii,2500 µg/mL
same,MIC,Staphylococcus aureus [16],1250 µg/mL
same,MIC,[17],1250 µg/mL
Oc1ccccc1/C=N/CCCCCCNc1ccnc2cc(Cl)ccc12,IC50,Cholinesterase [18],58400 nM
same,IC50,Acetylcholinesterase [19],730 nM
Clc1ccc2c(N3CCN(c4ccc(-c5nc6ccccc6[nH]5)cc4)CC3)ccnc2c1,IC50 at 72 h,[20],> 100000 nM
same,GI50 at 72 h,[21],> 100000 nM
CC(=O)n1c2ccccc2c(=O)c2c(-n3ccnc3)nc3ccc(Br)cc3c21,IC50,MCF7 [22],620 nM
same,IC50,A549,440 nM
CCCCCCCCOc1cc(/C=N/Nc2cc(C)nc3ccc(Cl)cc23)cc(OCCCCCCCC)c1OCCCCCCCC,MIC,Pseudomonas aeruginosa [23],6.25 µg/mL
same,MIC,Bacillus subtilis [24],25 µg/mL
same,MIC,Staphylococcus aureus [25],6.25 µg/mL
same,MIC,Escherichia coli [26],12.5 µg/mL
CCCOc1ccc(/C=N/Nc2cc(C)nc3ccc(Cl)cc23)cc1,MIC,Candida albicans,12.5 µg/mL
same,MIC,Aspergillus niger,25 µg/mL
Clc1ccc2c(NCCCCCCCCNC34CC5CC(CC(C5)C3)C4)ccnc2c1,Ki,Acetylcholinesterase [2],75 nM
same,Ki,Cholinesterase [3],91 nM
Cc1ccc(CNCCCCCCNc2ccnc3cc(Cl)ccc23)c(O)c1,IC50,Cholinesterase [18],1580 nM
same,IC50,Acetylcholinesterase [19],260 nM
CO[C@H]1/C=C/O[C@@]2(C)Oc3c(C)c(O)c4c(O)c(c(/C=N/N5CCN(C)CC5)c(O)c4c3C2=O)NC(=O)/C(C)=C\C=C\[C@H](C)[C@H](O)[C@@H](C)[C@@H](O)[C@@H](C)[C@H](OC(C)=O)[C@@H]1C [RIFAMPIN],inhibition at 250 µg/mL,[27],98%
Clc1ccc2c(Nc3cccc(-c4nc5ccccc5[nH]4)c3)ccnc2c1,IC50 at 72 h,[20],20400 nM
same,GI50 at 72 h,[21],1000 nM
CC1(C)CC[C@]2(C(=O)OCCOCCNc3ccnc4ccc(Cl)cc34)CC[C@]3(C)C(=CC[C@@H]4[C@@]5(C)CC[C@H](O)C(C)(C)[C@@H]5CC[C@]43C)[C@@H]2C1,MIC,[12],2500 µg/mL
same,MIC,Escherichia coli [13],1250 µg/mL
same,MIC,Pseudomonas aeruginosa [14],2500 µg/mL
same,MIC,Klebsiella oxytoca,2500 µg/mL
same,MIC,Bacillus subtilis [15],2500 µg/mL
same,MIC,Enterococcus faecalis,1250 µg/mL
same,MIC,Proteus vulgaris,2500 µg/mL
same,MIC,Pseudomonas mevalonii,1250 µg/mL
same,MIC,Staphylococcus aureus [16],2500 µg/mL
same,MIC,[17],1250 µg/mL
CC(C)(C)c1ccc(/C=N/CCNc2c3c(nc4ccccc24)CCCCC3)c(C(C)(C)C)c1O,IC50,Cholinesterase [1],419 nM
same,IC50,Acetylcholinesterase [28],4030 nM
